Laboratory results: patent US20250064789A1, “KETOAMIDE DERIVATIVES AND PHARMACEUTICAL USES THEREOF” (priority 2022, published 2025)

How the values were obtained:
[1] = target: hERG potassium ion channels (Homo sapiens (Human), UniProt Q12809); assay: hERG potassium current, whole cell patch clamp in HEK-293-hERG cells; details: 0.1 μM
[2] = Metabolic stability using human liver microsomes; format: in vitro ADME; details: NADPH, 37° C.
[3] = system: BEAS-2B cells (normal human bronchial epithelial cells); assay: Cytotoxic assay against human BEAS-2B cells (MTT, 72 h); format: cell-based
Procedure: (§1) BEAS-2B cells (normal human bronchial epithelial cells) and HUVEC cells (human umbilical vein endothelial cells) were used to evaluate the cytotoxicity of compounds against human-derived cells. The detailed experimental procedures: BEAS-2B cells or HUVEC cells were seeded into a 96-well plate at a cell density of 2×10^4 cells/well, that is, 100 µL/well, and then incubated overnight at 37° C. in a 5% CO2 incubator. The next day, 100 μL of drug-containing medium was added to each well. The compound was diluted in a 2-fold serial dilution with a top concentration of […], for a total of 6 gradients. Three repeated wells were set for each concentration, and negative controls and blank controls without drugs were included for each experiment. […] All experimental data were analyzed using GraphPad Prism software.

[4] = male, Sprague-Dawley, rat, in vivo, iv, 1 mg/kg
[5] = system: HUVEC cells (human umbilical vein endothelial cells); assay: Cytotoxic assay against HUVEC cells (MTT, 72 h); format: cell-based
Procedure: as §1

[6] = In vivo pharmacokinetic properties in rats; details: SD rats
in vivo = details: male, Sprague-Dawley, rat
Vero E6 cells = assay: Cytotoxic assay against Vero E6 cells (MTT, 72 h); format: cell-based
Procedure: The cytotoxicity assessment of compounds was performed against Vero E6 cells. The specific experimental procedures: Vero E6 cells were seeded into a 96-well plate at a cell density of 2×10^4 cells/well, with 100 μL/well, and then incubated overnight at 37° C. in a 5% CO2 incubator. The next day, 100 μL of drug-containing medium was added to each well. The compound was diluted in a 2-fold serial dilution with a top concentration of […], for a total of 6 gradients. Three repeated wells were set for each concentration, and negative controls and blank controls without drugs were included for each experiment. […] All experimental data were analyzed using GraphPad Prism software.

[7] = target: recombinant SARS-CoV-2 M^pro (Severe acute respiratory syndrome coronavirus 2 (2019-nCoV) (SARS-CoV-2), UniProt P0DTD1); assay: Inhibition of SARS-CoV-2 M^pro enzyme activity (fluorescent substrate assay); format: biochemical; details: inhibition of SARS-CoV-2 M^pro enzyme activity; values in nM; read-out: IC50
human cathepsin K = human cathepsin K (Homo sapiens (Human), UniProt P43235); assay: Human protease biochemical activity assay: Cathepsin K inhibitor screening kit; details: read-out: Cathepsin K IC50
Chain of human cathepsin K (P43235 115-329): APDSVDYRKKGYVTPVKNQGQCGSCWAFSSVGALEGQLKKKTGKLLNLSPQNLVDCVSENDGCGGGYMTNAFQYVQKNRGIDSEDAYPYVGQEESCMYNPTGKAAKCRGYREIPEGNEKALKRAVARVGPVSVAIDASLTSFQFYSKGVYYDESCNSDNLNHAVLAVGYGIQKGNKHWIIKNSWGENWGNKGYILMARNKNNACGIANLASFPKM
Procedure: (§2) The biochemical activity of compounds against human proteases was determined using Cathepsin K inhibitor screening kit (K150-100), Cathepsin B inhibitor screening kit (K147-100), Thrombin activity testing kit (K373-100), Caspase-2 inhibitor screening kit (K152-100), and Cathepsin D inhibitor screening kit (K148-100) according to the instructions of the kits (Biovision, USA). All experiments were carried out in triplicate. All experimental data were analyzed using GraphPad Prism software.

human thrombin = human thrombin (Homo sapiens (Human), UniProt P00734); assay: Human protease biochemical activity assay: Thrombin activity testing kit; details: read-out: Thrombin IC50
Procedure: as §2

human cathepsin D = human cathepsin D (Homo sapiens (Human), UniProt P07339); assay: Human protease biochemical activity assay: Cathepsin D inhibitor screening kit
Chain of human cathepsin D (P07339 65-412): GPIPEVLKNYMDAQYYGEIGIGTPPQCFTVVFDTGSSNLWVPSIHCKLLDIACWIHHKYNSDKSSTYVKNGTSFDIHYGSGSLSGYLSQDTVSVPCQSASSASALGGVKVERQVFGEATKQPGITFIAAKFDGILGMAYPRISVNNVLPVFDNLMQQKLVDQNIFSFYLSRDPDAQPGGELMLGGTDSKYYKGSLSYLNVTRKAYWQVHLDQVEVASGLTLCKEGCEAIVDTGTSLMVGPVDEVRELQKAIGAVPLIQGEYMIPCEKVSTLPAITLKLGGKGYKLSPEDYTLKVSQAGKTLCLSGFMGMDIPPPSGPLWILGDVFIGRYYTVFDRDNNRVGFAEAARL
Procedure: as §2

human cathepsin B = human cathepsin B (Homo sapiens (Human), UniProt P07858); assay: Human protease biochemical activity assay: Cathepsin B inhibitor screening kit
Procedure: as §2

human caspase 2 = human caspase 2 (Homo sapiens (Human), UniProt P42575); assay: Human protease biochemical activity assay: Caspase-2 inhibitor screening kit; details: read-out: Caspase-2 IC50
Chain of human caspase 2 (P42575 170-325): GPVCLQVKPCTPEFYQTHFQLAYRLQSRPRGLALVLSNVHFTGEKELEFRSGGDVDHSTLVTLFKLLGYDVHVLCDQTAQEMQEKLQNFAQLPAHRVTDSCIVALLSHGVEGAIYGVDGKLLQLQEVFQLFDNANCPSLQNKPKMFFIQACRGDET
Chain of human caspase 2 (P42575 348-452): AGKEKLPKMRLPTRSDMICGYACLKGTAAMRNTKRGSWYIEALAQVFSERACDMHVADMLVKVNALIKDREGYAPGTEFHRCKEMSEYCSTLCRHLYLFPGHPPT
Procedure: as §2

Chain of hERG potassium ion channels (Q12809 whole entry, looked up): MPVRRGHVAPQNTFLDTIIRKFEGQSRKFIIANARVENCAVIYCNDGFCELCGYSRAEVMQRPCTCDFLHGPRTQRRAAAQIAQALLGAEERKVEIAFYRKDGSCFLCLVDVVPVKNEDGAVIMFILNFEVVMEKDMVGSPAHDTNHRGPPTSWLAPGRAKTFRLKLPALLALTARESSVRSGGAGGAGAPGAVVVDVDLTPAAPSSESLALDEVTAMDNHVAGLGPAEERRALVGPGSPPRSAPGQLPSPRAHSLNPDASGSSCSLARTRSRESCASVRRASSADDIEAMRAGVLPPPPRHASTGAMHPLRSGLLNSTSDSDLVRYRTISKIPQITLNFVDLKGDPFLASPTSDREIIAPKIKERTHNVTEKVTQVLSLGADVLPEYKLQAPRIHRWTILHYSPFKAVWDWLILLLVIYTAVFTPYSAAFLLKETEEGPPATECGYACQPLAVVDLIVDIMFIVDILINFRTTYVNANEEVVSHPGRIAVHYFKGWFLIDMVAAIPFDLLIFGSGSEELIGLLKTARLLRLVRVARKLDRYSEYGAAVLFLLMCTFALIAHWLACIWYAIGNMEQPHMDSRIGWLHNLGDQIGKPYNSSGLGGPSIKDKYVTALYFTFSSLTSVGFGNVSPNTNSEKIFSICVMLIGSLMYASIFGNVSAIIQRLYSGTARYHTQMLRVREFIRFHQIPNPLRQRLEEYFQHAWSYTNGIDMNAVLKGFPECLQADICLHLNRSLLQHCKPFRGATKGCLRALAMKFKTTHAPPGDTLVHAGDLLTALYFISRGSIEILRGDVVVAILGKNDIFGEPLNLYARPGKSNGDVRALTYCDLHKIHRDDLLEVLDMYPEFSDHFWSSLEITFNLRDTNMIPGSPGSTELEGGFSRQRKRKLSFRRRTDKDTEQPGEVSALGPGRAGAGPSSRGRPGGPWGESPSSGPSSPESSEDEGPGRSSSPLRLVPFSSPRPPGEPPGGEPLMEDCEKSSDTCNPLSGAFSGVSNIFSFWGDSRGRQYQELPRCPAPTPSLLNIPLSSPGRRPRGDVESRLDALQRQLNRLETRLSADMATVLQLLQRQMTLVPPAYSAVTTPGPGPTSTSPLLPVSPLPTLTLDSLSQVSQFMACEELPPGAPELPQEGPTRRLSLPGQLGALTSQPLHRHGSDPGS

SMILES	Human liver microsomes T1/2 [2] [h]	CC50 [3] [µM]	Vssobs [4] [L/kg]	CC50 [5] [µM]	AUCINF—obs ([6]; i.v. 1 mg/kg) [ng·h/mL]	AUClast ([6]; i.v. 1 mg/kg) [ng·h/mL]	Cmax ([6]; i.v. 1 mg/kg) [ng/mL]	AUCINF—obs ([6]; p.o. 10 mg/kg) [ng·h/mL]	AUClast ([6]; p.o. 10 mg/kg) [ng·h/mL]	Cmax ([6]; p.o. 10 mg/kg) [ng/mL]	F % ([6]; p.o. 10 mg/kg) [%]	T1/2 ([6]; p.o. 10 mg/kg) [h]	MRT inf (in vivo; iv, 1 mg/kg) [h]	Tmax (in vivo; iv, 1 mg/kg) [h]	MRT inf (in vivo; po, 10 mg/kg) [h]	CC50 (Vero E6 cells) [µM]	IC50 [7] [nM]	IC50 (human cathepsin K) [µM]	IC50 (human thrombin) [µM]	IC50 (human cathepsin D) [µM]	also measured
COc1cc(N)c(Cl)cc1C(=O)NC1CCN(CCCOc2ccc(F)cc2)CC1OC (stereo not shown) [Cisapride, reference compound]																					The average tail current after administration [1]: 128.04 pA
C[C@@H](NC(=O)C1CCC(F)(F)CC1)C(=O)N[C@H](Cc1ccccc1)C(=O)C(=O)NCc1nccs1 [Compound 354]	0.5935	> 500	1.31 ± 0.54	> 500	1020.76 ± 261.50	1011.17 ± 258.49	1105.29 ± 69.99	2844.61 ± 326.65	2567.31 ± 678.74	306.27 ± 32.12	25.39 ± 6.71	3.01 ± 0.91	0.93 ± 0.18	0.08	4.89 ± 1.14	> 500					Tmax ([6]; p.o. 10 mg/kg): 2.67 ± 1.15 h; half-life (in vivo; iv, 1 mg/kg): 2.42 ± 2.24 h
C[C@@H](NC(=O)CC1CC(F)(F)C1)C(=O)N[C@H](Cc1ccccc1)C(=O)C(=O)NCc1nccs1 [Compound 378]		> 500	3.65 ± 0.74	> 500	2254.80 ± 672.40	2196.61 ± 634.20	1568.34 ± 201.27	8696.48 ± 1124.53	8180.11 ± 795.05	734.80 ± 101.62		5.84 ± 1.30	3.19 ± 0.31	0.08	6.57 ± 0.38	> 500	21.2 ± 0.3	> 100	> 100	> 100	IC50 (human cathepsin B): > 100 µM; IC50 (human caspase 2): > 100 µM; CL ([6]; i.v. 1 mg/kg): 7.95 ± 2.80 mL/min/kg; T1/2 ([6]; i.v. 1 mg/kg): 5.47 ± 0.77 h; Tmax ([6]; p.o. 10 mg/kg): 1.33 ± 0.58 h; bioavailability (in vivo; po, 10 mg/kg): 7.95 ± 2.8%
C[C@@H](NC(=O)C1CCC(F)(F)C1)C(=O)N[C@H](Cc1ccccc1)C(=O)C(=O)NCc1nccs1 (stereo partly shown) [Compound 379]	0.7035	> 500	2.49 ± 1.61	> 500	1329.00 ± 555.62	1292.28 ± 530.92	1317.59 ± 168.03	6903.48 ± 2619.87	6721.57 ± 2461.95	634.54 ± 161.39	52.01 ± 19.05	4.15 ± 1.48	1.26 ± 0.42	0.08	5.9 ± 0.79	> 500	22.5 ± 0.7	> 100	> 100	> 100	IC50 (human cathepsin B): > 100 µM; IC50 (human caspase 2): > 100 µM; CL ([6]; i.v. 1 mg/kg): 14.52 ± 7.25 mL/min/kg; T1/2 ([6]; i.v. 1 mg/kg): 1.90 ± 0.27 h; Tmax ([6]; p.o. 10 mg/kg): 1.67 ± 0.58 h
COC[C@@H](NC(=O)C1CCC(F)(F)CC1)C(=O)N[C@H](Cc1ccccc1)C(=O)C(=O)NCc1nccs1 [Compound 395]	0.6498	159	5.25 ± 2.13	129	2829.72 ± 958.55	2574.49 ± 819.96	1697.71 ± 237.45	13950.66 ± 782.95	12675.30 ± 1265.92	1006.49 ± 114.61	49.23 ± 4.92	6.64 ± 1.17	3.55 ± 0.52	0.08	7.63 ± 0.57	132	18.4 ± 1.3	> 100	> 100	> 100	IC50 (human cathepsin B): > 100 µM; IC50 (human caspase 2): > 100 µM; CL ([6]; i.v. 1 mg/kg): 6.48 ± 2.63 mL/min/kg; T1/2 ([6]; i.v. 1 mg/kg): 9.49 ± 2.16 h; Tmax (in vivo; po, 10 mg/kg): 4 h
COC[C@@H](NC(=O)CC1CC(F)(F)C1)C(=O)N[C@H](Cc1ccccc1)C(=O)C(=O)NCc1nccs1 [Compound 400]	0.5067	> 500	3.28 ± 1.17	> 500	2394.12 ± 644.94	2357.97 ± 638.69	1352.62 ± 116.10	11166.54 ± 364.00	10791.37 ± 123.59	805.87 ± 75.43	45.77 ± 0.52	4.67 ± 1.04	3.18 ± 0.52	0.08	6.47 ± 0.5	> 500	10.2 ± 0.1	> 100	> 100	> 100	IC50 (human cathepsin B): > 100 µM; IC50 (human caspase 2): > 100 µM; CL ([6]; i.v. 1 mg/kg): 7.30 ± 1.90 mL/min/kg; T1/2 ([6]; i.v. 1 mg/kg): 5.09 ± 0.57 h; Tmax (in vivo; po, 10 mg/kg): 2 h
